What was measured:
[1] = test system: JAK1/JAK2-dependent nuclear translocation of STAT1-GFP in HT1080 fibrosarcoma cells; test: STAT1 nuclear translocation assay (Cellomics), IFN-γ stimulated HT1080 STAT1-GFP cells; format: cell-based; details: Homo sapiens, HT-1080, STAT1 translocation pathway
Summary of the method: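 IC50 derived from percent nuclear STAT1-GFP translocation, computed from nuclear minus cytoplasmic GFP intensity against untreated baseline and DMSO-stimulated control. Stable HT1080 STAT1-GFP cells received compound (0.003–10 μM, 0.1% DMSO) 30 min ahead of a 2 h 100 ng/ml IFN-γ stimulus, then fixation and Hoechst nuclear masking.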

[2] = test system: JAK2-dependent nuclear translocation of STAT5-GFP in U-2 OS osteosarcoma cells; test: STAT5 nuclear translocation assay (Cellomics), rhEpo stimulated U-2 OS STAT5-GFP cells; format: cell-based; details: Homo sapiens, U2OS; STAT5 translocation pathway
Summary of the method: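 U-2 OS cells stably expressing STAT5a-GFP and EpoR pre-treated with compound (final 10 μM to 0.003 μM, 0.1% DMSO) for 30 min at 37° C., then stimulated 1 h with 5 U/ml rhEpo. Nuclear-cytoplasmic GFP differential quantified by automated imaging (≥1000 cells/well, Hoechst nuclear mask). IC50 from % translocation normalized to untreated and DMSO-stimulated controls.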

Compound | IC50 [1] | IC50 [2]
CC(C)Oc1ccc(Nc2ncc3ccn(-c4ccc(C#N)cc4)c3n2)cc1 [Example 96, 4-[2-(4-Isopropoxy-phenylamino)-pyrrolo[2,3-d]pyrimidin-7-yl]-benzonitrile] | 26200 nM | 
COc1cc(Nc2ncc3ccn(-c4ccc(C(=O)N5CCOCC5)c(F)c4)c3n2)ccc1F [Example 151, {2-Fluoro-4-[2-(4-fluoro-3-methoxy-phenylamino)-pyrrolo[2,3-d]pyrimidin-7-yl]-phenyl}-morpholin-4-yl-methanone] | 228 nM | 
COCc1ccc(Nc2ncc3ccn(-c4cc(F)c(CN5CCS(=O)(=O)CC5)c(F)c4)c3n2)cc1 [Example 184, {7-[4-(1,1-Dioxido-thiomorpholin-4-ylmethyl)-3,5-difluoro-phenyl]-7H-pyrrolo[2,3-d]pyrimidin-2-yl}-(4-methoxymethyl-phenyl)-amine] | 35 nM | 
CN1CCN(C(=O)c2cccc(Nc3ncc4ccn(-c5cc(F)c(CN6CCOCC6)c(F)c5)c4n3)c2)CC1 [Example 203, {3-[7-(3,5-Difluoro-4-morpholin-4-ylmethyl-phenyl)-7H-pyrrolo[2,3-d]pyrimidin-2-ylamino]-phenyl}-(4-methyl-piperazin-1-yl)-methanone] | 412 nM | 
Cc1ccc(Nc2ncc3ccn(-c4ccc(C(=O)N5CCOCC5)cc4)c3n2)cn1 [Example 238, {4-[2-(6-Methyl-pyridin-3-ylamino)-pyrrolo[2,3-d]pyrimidin-7-yl]-phenyl}-morpholin-4-yl-methanone] | 785 nM | 
Cc1ccc(Nc2ncc3ccn(-c4ccc(C(=O)N5CCN(CCO)CC5)cc4)c3n2)cc1C [Example 300, {4-[2-(3,4-Dimethyl-phenylamino)-pyrrolo[2,3-d]pyrimidin-7-yl]-phenyl}-[4-(2-hydroxy-ethyl)-piperazin-1-yl]-methanone] | 2030 nM | 
Cn1cc(Nc2ncc3ccn(-c4ccc(CC(=O)N5CCOCC5)cc4)c3n2)cn1 [Example 301, 2-{4-[2-(1-Methyl-1H-pyrazol-4-ylamino)-pyrrolo[2,3-d]pyrimidin-7-yl]-phenyl}-1-morpholin-4-yl-ethanone] | 50 nM | 
Cc1cc(Nc2ncc3ccn(-c4ccc(C(=O)N5CCOCC5)c(F)c4)c3n2)nn1C [Example 311, {4-[2-(1,5-Dimethyl-1H-pyrazol-3-ylamino)-pyrrolo[2,3-d]pyrimidin-7-yl]-2-fluoro-phenyl}-morpholin-4-yl-methanone] | 1400 nM | 
Cc1ccc(Nc2ncc3ccn(-c4cc(F)c(CN5CCOCC5)c(F)c4)c3n2)cc1CN1CCNCC1 [Example 332, [7-(3,5-Difluoro-4-morpholin-4-ylmethyl-phenyl)-7H-pyrrolo[2,3-d]pyrimidin-2-yl]-(4-methyl-3-piperazin-1-ylmethyl-phenyl)-amine] | 375 nM | 73 nM
Fc1cc(-n2ccc3cnc(Nc4ccnc(CN5CCNCC5)c4)nc32)cc(F)c1CN1CCOCC1 [Example 372, [7-(3,5-Difluoro-4-morpholin-4-ylmethyl-phenyl)-7H-pyrrolo[2,3-d]pyrimidin-2-yl]-(2-piperazin-1-ylmethyl-pyridin-4-yl)-amine] |  | 57 nM
C[C@@H]1CN(c2ccc(Nc3ncc4ccn(-c5ccc(NS(C)(=O)=O)cc5)c4n3)cn2)C[C@H](C)N1 [Example 380, N-(4-{2-[6-(cis-3,5-Dimethyl-piperazin-1-yl)-pyridin-3-ylamino]-pyrrolo[2,3-d]pyrimidin-7-yl}-phenyl)-methanesulfonamide] |  | 46 nM
Cc1ccc(Nc2ncc3ccn(-c4cc(F)c(CN5CCNC(=O)C5)c(F)c4)c3n2)cc1CN1CCNCC1 [Example 382, 4-{2,6-Difluoro-4-[2-(4-methyl-3-piperazin-1-ylmethyl-phenylamino)-pyrrolo[2,3-d]pyrimidin-7-yl]-benzyl}-piperazin-2-one] |  | 121 nM
CN1CCN(c2ccc(Nc3ncc4ccn(-c5cc(F)c(CN6CCS(=O)(=O)CC6)c(F)c5)c4n3)nc2)CC1 [Example 440, {7-[4-(1,1-Dioxido-thiomorpholin-4-ylmethyl)-3,5-difluoro-phenyl]-7H-pyrrolo[2,3-d]pyrimidin-2-yl}-[5-(4-methyl-piperazin-1-yl)-pyridin-2-yl]-amine] |  | 61 nM
COCc1c(F)cc(-n2ccc3cnc(Nc4ccc(N5CCN(C)CC5)nc4)nc32)cc1F [Example 446, [7-(3,5-Difluoro-4-methoxymethyl-phenyl)-7H-pyrrolo[2,3-d]pyrimidin-2-yl]-[6-(4-methyl-piperazin-1-yl)-pyridin-3-yl]-amine] | 50 nM | 1.3 nM
CC1(C)NCCN(c2cc(Nc3ncc4ccn(-c5cc(F)c(CN6CCOCC6)c(F)c5)c4n3)ccn2)C1=O [Example 503, 1-{4-[7-(3,5-Difluoro-4-morpholin-4-ylmethyl-phenyl)-7H-pyrrolo[2,3-d]pyrimidin-2-ylamino]-pyridin-2-yl}-3,3-dimethyl-piperazin-2-one] |  | 27.5 nM

Source: US8420657B2 (Novartis AG, priority 2008, dated 2013)
